Data set [1] deals with Tyrosine-protein kinase JAK2 (Homo sapiens, UniProt O60674). Put plainly: Inhibition of JAK2.
Data set [2] in a line: Oral bioavailability in cynomolgus monkey at 10 mg/kg. Format: ADME, organism-based, Macaca fascicularis. Conditions: in vivo.
Data set [3] can be described thus: AUC (0 to 24 hrs) in cynomolgus monkey at 0.3 mg/kg, iv. Also noted: time < 24 hr, dose 0.3 mg/kg, route intravenous. The conditions noted are these: plasma. Format: ADME, organism-based, Macaca fascicularis.
Data set [4] in a line: AUC in CD1 mouse at 50 mg/kg, po. It counts as ADME, organism-based. On the set-up: dose 50 mg/kg, route oral. The conditions noted are these: plasma.
The nature of data set [5]: (§1) AUC (0 to 24 hrs) in Beagle dog at 10 mg/kg, po. Conditions: beagle, plasma. Format: ADME, organism-based, Canis lupus familiaris, Plasma. On the set-up: time < 24 hr, dose 10 mg/kg, route oral.
The nature of data set [6]: Oral AUC in Beagle dog at 10 mg/kg, po. Format: ADME, organism-based, Canis lupus familiaris. On the set-up: dose 10 mg/kg, route oral. Conditions: in vivo.
A short description of data set [7]: Oral AUC in cynomolgus monkey at 10 mg/kg, po. It counts as ADME, organism-based, Macaca fascicularis. On the set-up: dose 10 mg/kg, route oral. Conditions: in vivo.
Data set [8] is described as follows: AUC (0 to 24 hrs) in Beagle dog at 0.3 mg/kg, iv. On the set-up: time < 24 hr, dose 0.3 mg/kg, route intravenous. The conditions noted are these: plasma. It counts as ADME, organism-based, Canis lupus familiaris.
A short description of data set [9]: (§2) Oral bioavailability in Beagle dog at 10 mg/kg. Format: ADME, organism-based, Canis lupus familiaris. Conditions: beagle, in vivo.
Data set [10] is described as follows: Clearance in Beagle dog at 1 mg/kg, iv. On the set-up: dose 1 mg/kg, route intravenous. Conditions: in vivo. It counts as ADME, organism-based, Canis lupus familiaris.
The subject of data set [11] is Canis familiaris. The data set is described as §1. Format: ADME, organism-based, Canis lupus familiaris, Plasma. Also noted: time < 24 hr, dose 10 mg/kg, route oral. The conditions noted are these: in vivo, 24 h.
Data set [12] concerns Canis familiaris. Put plainly: AUC (0 to 24 hrs) in Beagle dog at 1 mg/kg, iv. Format: ADME, organism-based, Canis lupus familiaris, Plasma. On the set-up: time < 24 hr, dose 1 mg/kg, route intravenous. Conditions: in vivo.
A further data set concerns Mus musculus. Put plainly: Inhibition of Aurora B-mediated histone H3 phosphorylation in nude mouse xenografted with human A2780 cells at 100 mg/kg, po administered as single dose measured 2 hrs. Format: functional. Conditions: A2780, 2 h. On the technique in general: A xenograft is tissue or cells of one species grown in another, often human tumour cells in immunodeficient mice.

The subject of data set [13] is Canis familiaris. The data set is described as §2. Format: ADME, organism-based, Canis lupus familiaris. The conditions noted are these: in vivo.

A value given as a limit tells only on which side of the number the result lay.

From ChEMBL document CHEMBL1649074, “Aurora kinase inhibitors based on the imidazo[1,2-a]pyrazine core: fluorine and deuterium incorporation improve oral absorption and exposure” (J Med Chem, 2011) come the findings set out here.

By IC50 is commonly meant the concentration at which inhibition is half-maximal. By bioavailability is commonly meant dose-corrected exposure relative to a reference, in per cent. Broadly, the AUC(0-t) is the area under the concentration-time curve up to a stated or last time point. In general, AUC refers to concentration integrated over time. For orientation: clearance means the rate of elimination divided by the concentration. What is called inhibition in vivo is how much of the control response was suppressed.

Tyrosine-protein kinase JAK2, sequence (O60674 whole entry): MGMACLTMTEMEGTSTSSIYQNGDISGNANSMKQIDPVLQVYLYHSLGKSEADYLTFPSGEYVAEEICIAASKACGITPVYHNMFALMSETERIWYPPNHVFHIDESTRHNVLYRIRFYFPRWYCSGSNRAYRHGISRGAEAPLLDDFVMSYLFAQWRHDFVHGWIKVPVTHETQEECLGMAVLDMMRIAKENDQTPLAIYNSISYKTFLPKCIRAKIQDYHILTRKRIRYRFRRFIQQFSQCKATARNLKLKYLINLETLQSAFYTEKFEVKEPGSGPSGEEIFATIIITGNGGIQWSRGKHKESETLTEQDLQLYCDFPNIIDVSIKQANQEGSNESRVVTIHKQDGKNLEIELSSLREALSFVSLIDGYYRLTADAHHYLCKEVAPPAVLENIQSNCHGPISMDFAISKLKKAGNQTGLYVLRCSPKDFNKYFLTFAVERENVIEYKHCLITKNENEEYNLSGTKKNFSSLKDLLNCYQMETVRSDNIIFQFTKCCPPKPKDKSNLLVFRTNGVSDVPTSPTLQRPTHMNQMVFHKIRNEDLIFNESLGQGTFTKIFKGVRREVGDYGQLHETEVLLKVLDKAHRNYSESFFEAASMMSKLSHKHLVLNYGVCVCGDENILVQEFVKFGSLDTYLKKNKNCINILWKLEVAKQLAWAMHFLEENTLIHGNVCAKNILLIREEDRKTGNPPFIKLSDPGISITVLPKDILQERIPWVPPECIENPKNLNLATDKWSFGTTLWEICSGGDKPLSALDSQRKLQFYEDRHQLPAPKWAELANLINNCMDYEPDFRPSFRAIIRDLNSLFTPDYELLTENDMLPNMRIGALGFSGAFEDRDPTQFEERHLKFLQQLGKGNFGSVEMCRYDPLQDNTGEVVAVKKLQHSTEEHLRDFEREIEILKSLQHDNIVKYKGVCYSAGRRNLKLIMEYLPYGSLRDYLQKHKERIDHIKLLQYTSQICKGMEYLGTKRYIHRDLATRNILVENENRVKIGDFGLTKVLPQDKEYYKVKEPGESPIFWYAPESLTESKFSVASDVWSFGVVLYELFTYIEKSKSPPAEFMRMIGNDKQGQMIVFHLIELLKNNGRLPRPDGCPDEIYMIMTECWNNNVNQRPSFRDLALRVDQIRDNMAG

In the case of `CCN(Cc1cc(Nc2nc(C)cn3c(-c4cn[nH]c4)cnc23)sn1)C(C)(C)CO`, the IC50 in data set [1] is over 0.1 µM.
On to `Cc1cn2c(-c3cn[nH]c3)cnc2c(Nc2cc(CN3CCC(F)(F)C3)ns2)n1.Cl`, for which the bioavailability was 2% in data set [2] and 20% in data set [9]. The AUC(0-t) at 24 h in data set [3] is 700 nM·h; in [5] it was 2600 nM·h; in data set [8] it was 400 nM·h. The AUC in data set [4] is 9400 nM·h; in data set [6], 2600 nM·h; in data set [7], 800 nM·h.
Consider `Cl.[2H]C([2H])(c1cc(Nc2nc(C)cn3c(-c4cn[nH]c4)cnc23)sn1)N1CCC(F)(F)C1`, for which the clearance in data set [10] came out at 0.27 L/h/kg. In addition, the AUC in the data set on Canis familiaris [11] stood at 3100 nM·h; in the data set with Canis familiaris [12] it was 9000 nM·h. This compound gave an inhibition in vivo at 100 mg/kg with Mus musculus of 83%. The same compound registered a F with Canis familiaris [13] of 33%.
